Results taken from patent US8242110B2, “Use of antihistamine agents for the preventive or early treatment of inflammatory syndromes, in particular those triggered by togaviruses” (Pierre Fabre Medicament, priority 2006, dated 2012).

Tested on: Chikungunya virus
Assay: Observational study of mequitazine in preventive and early treatment of inflammatory syndromes caused by the Chikungunya virus
Type: in vivo
Details: patients
Procedure: Effect of Mequitazine on the Preventive and Early Treatment of Inflammatory Syndromes Caused by the Chikungunya Virus—Results of an Observational Study
104 patients were included in this observational study involving a limited number of doctors held secret: mean age 39.6 years, 61.9% female.
At the time of inclusion at D0, the patients were slightly feverish with a mean temperature of 38.4° C.
The patients consulted after various periods following the onset of hyperthermia, but generally 1.1 days after this onset, the phase preceding the onset of arthralgia.
During this first visit, the most painful joints were the fingers, wrists and ankles.
At this first visit on D0, the doctors gave mequitazine to the patients, possibly in combination with an anti-inflammatory.
A questionnaire was handed to each patient and completed with the patient.
This questionnaire included the content of 2 conventional questionnaires: • HAQ* questionnaire (Health Assessment Questionnaire) to assess the functional capacity of patients (function index) i.e. the handicap generated by the pathology; • A SF12** questionnaire to assess the quality of life of the patient using the SF12 score.
At D7 and D14 the patient again filled in these questionnaires.
At D28, at the time of a further consultation, these questionnaires were again updated. • HAQ: Bruce B and Fries J. The Stanford Health Assessment Questionnaire (HAQ): A review of its history, issues, progress and documentation. J. Rheumatol. 2003; 30(1):167-78. • SF12: Ware J Jr, Kosinski M, Keller S D. A 12-item Short-Form Health Survey: construction of scales and preliminary tests of reliability and validity. Med. Care 1996; 34:220-33.

c1ccc2c(c1)Sc1ccccc1N2CC1CN2CCC1CC2 (centres unmarked) [mequitazine]
handicap generated by the pathology (HAQ function index) (at D14, mequitazine given at D0): statistically significant improvement | handicap generated by the pathology (HAQ function index) (at D28, mequitazine given at D0): statistically significant improvement | number of painful joints (between D0 and D7, decrease continuing in time): significant decrease | influence of combining an anti-inflammatory with mequitazine on the SF12 physical score measuring quality of life (mequitazine combined with an anti-inflammatory): does not have an influence | physical recovery (SF12 scale and HAQ test) in relation to how early mequitazine is prescribed (the earlier a patient consults and mequitazine is prescribed): the more physical recovery is swift and extensive
